Data taken from patent US20250163119A1, “COMPOUNDS FOR THE TREATMENT OF DIABETES OR OBESITY” (Eli Lilly and Company, priority 2023, published 2025).
Values joined by “and” are separate entries in the source; they are usually repeats but may differ in a detail not shown here. Equal entries are not always repeated. *1 amine or outer side, *2 acyl side, *3 side chain or, on linkers, in order; H or OH if unused. Side-chain parts run from the residue outwards. [ ]: non-standard residue; d: D form. The star is where a group is joined. C20 diacid = O=C(O)CCCCCCCCCCCCCCCCCCC(=O)*; γGlu = O=C(O)[C@H](CCC(=O)[*:2])N[*:1]; εLys = N[C@@H](CCCCN[*:1])C(=O)[*:2]; αMeL = CC(C)C[C@](C)(N)C(=O)O; AEEA = NCCOCCOCC(=O)O; Aib = CC(C)(N)C(=O)O

Experiments:
[1] = Pharmacokinetics in Yucatan mini-pigs, single subcutaneous or intravenous dose; assay type: in vivo; details: for Tmax: read-out: Tmax
How it was run: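 Male mini-pigs received one SC or IV dose (19 or 99 nmol/kg) in 40 mM Tris-HCl 5% D-mannitol, pH 8. Blood sampled 0.083 (IV only) to 504 h postdose. Plasma levels measured by LC/MS after extraction and SPE, Orbitrap detection.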

[2] = system: MHC-II presented peptides on human dendritic cells; test: MAPPS assay (MHC-Associated Peptide Proteomics); assay type: cell-based
How it was run: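 CD14+ monocytes from healthy donor PBMCs were differentiated to immature DCs with IL-4/GM-CSF, exposed to test molecules on day 4 and matured with LPS on day 5. On day 6, MHC-II complexes were immunoprecipitated and eluted peptides identified by mass spectrometry; value is percentage of donors presenting peptides from each region.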

[3] = Pharmacokinetics in Sprague Dawley rats, single subcutaneous or intravenous dose (incl. 10, 30, 100 nmol/kg dose response); assay type: in vivo; details: for Tmax: read-out: Tmax
[4] = male Yucatan pigs, single subcutaneous dose 19 nmol/kg, individual animal
[5] = male, Yucatan mini-pig, minipig, plasma, iv, 19 nmol/kg, single intravenous dose 19 nmol/kg, individual animal
[6] = male, Yucatan mini-pig, minipig, plasma, iv, 19 nmol/kg, single intravenous dose 19 nmol/kg, mean
[7] = male, Yucatan mini-pig, minipig, plasma, sc, 19 nmol/kg, single subcutaneous dose 19 nmol/kg, Mean
[8] = male, Yucatan mini-pig, minipig, plasma, sc, 19 nmol/kg, single subcutaneous dose 19 nmol/kg, individual animal
[9] = single intravenous dose 19 nmol/kg, male Yucatan pigs, individual animal
[10] = dose response, single subcutaneous dose 10 nmol/kg, male Sprague Dawley rats, individual animal
[11] = dose response, single subcutaneous dose 30 nmol/kg, male Sprague Dawley rats, individual animal
[12] = dose response, single subcutaneous dose 100 nmol/kg, male Sprague Dawley rats, individual animal
[13] = male Sprague Dawley rats, single intravenous dose 187 nmol/kg, individual animal
[14] = male, Sprague Dawley, rat, plasma, iv, 187 nmol/kg, single intravenous dose 187 nmol/kg, Mean
[15] = male, Sprague Dawley, rat, plasma, sc, 10 nmol/kg, dose response, single subcutaneous dose 10 nmol/kg, individual animal
[16] = male, Sprague Dawley, rat, plasma, sc, 10 nmol/kg, dose response, single subcutaneous dose 10 nmol/kg, mean
[17] = male, Sprague Dawley, rat, plasma, sc, 30 nmol/kg, dose response, single subcutaneous dose 30 nmol/kg, individual animal
[18] = male, Sprague Dawley, rat, plasma, sc, 30 nmol/kg, dose response, single subcutaneous dose 30 nmol/kg, mean
[19] = male, Sprague Dawley, rat, plasma, sc, 100 nmol/kg, dose response, single subcutaneous dose 100 nmol/kg, individual animal
[20] = male, Sprague Dawley, rat, plasma, sc, 100 nmol/kg, dose response, single subcutaneous dose 100 nmol/kg, mean
[21] = male, Sprague Dawley, rat, plasma, sc, 187 nmol/kg, single subcutaneous dose 187 nmol/kg, individual animal
[22] = male, Sprague Dawley, rat, plasma, sc, 187 nmol/kg, single subcutaneous dose 187 nmol/kg, mean
[23] = single subcutaneous dose 187 nmol/kg, male Sprague Dawley rats, individual animal

AUC0-inf ([1]; Yucatan mini-pig, minipig, plasma, sc, male Yucatan pigs, single subcutaneous dose 19 nmol/kg, Mean, read-out: AUC0-inf): 17.8 µM·h
Cmax ([1]; Yucatan mini-pig, minipig, plasma, sc, male Yucatan pigs, single subcutaneous dose 19 nmol/kg, Mean, read-out: Cmax): 0.147 µM
AUC0-inf [1, 4]: 22.4 µM·h and 13.1 µM·h
CL/F [1, 4]: 1.46 mL/h/kg
Cmax [1, 4]: 0.171 µM and 0.122 µM
T1/2 [1, 4]: 60.2 h
clearance [1, 5]: 0.583 mL/h/kg
half-life [1, 5]: 87 h
clearance [1, 6]: 0.755 mL/h/kg
half-life [1, 6]: 71.5 h
half-life [1, 7]: 75.9 h
CL/F ([1]; male, Yucatan mini-pig, minipig, plasma, sc, 19 nmol/kg, single subcutaneous dose 19 nmol/kg, Mean, read-out: CL/F (converted)): 1.15 mL/h/kg
Tmax [1, 7]: 6 h
half-life [1, 8]: 91.6 h
CL/F ([1]; male, Yucatan mini-pig, minipig, plasma, sc, 19 nmol/kg, single subcutaneous dose 19 nmol/kg, individual animal, read-out: CL/F (converted)): 0.848 mL/h/kg
Tmax [1, 8]: 6 h
AUC0-inf ([1]; minipig, plasma, single intravenous dose 19 nmol/kg, male Yucatan pigs, mean, read-out: AUC0-inf): 26.2 µM·h
C0 ([1]; minipig, plasma, single intravenous dose 19 nmol/kg, male Yucatan pigs, mean, read-out: C0): 0.619 µM
AUC0-inf [1, 9]: 32.1 µM·h and 20.2 µM·h
C0 [1, 9]: 0.591 µM and 0.646 µM
CL [1, 9]: 0.927 mL/h/kg
T1/2 [1, 9]: 55.9 h
MAPPS Assay >10 donors with diverse MHC ([2]; donors displaying MHC-II peptides / donors tested): 3/20
MAPPS Assay >10 donors with diverse MHC ([2]; percentage of donors displaying MHC-II peptides): 15%
CL/F [3, 10]: 6.10 mL/h/kg and 4.63 mL/h/kg
T1/2 [3, 10]: 41.7 h and 31.1 h
CL/F [3, 11]: 4.55 mL/h/kg and 4.19 mL/h/kg
T1/2 [3, 11]: 37.1 h and 36.1 h
CL/F [3, 12]: 4.86 mL/h/kg and 4.91 mL/h/kg
T1/2 [3, 12]: 26.0 h and 24.6 h
CL [3, 13]: 2.04 mL/h/kg and 2.42 mL/h/kg
T1/2 [3, 13]: 47.5 h and 23.2 h and 31.0 h
clearance [3, 14]: 2.05 mL/h/kg
half-life [3, 14]: 33.9 h
clearance ([3]; male, Sprague Dawley, rat, plasma, iv, 187 nmol/kg, single intravenous dose 187 nmol/kg, individual animal): 1.69 mL/h/kg
half-life [3, 15]: 26 h
CL/F ([3]; male, Sprague Dawley, rat, plasma, sc, 10 nmol/kg, dose response, single subcutaneous dose 10 nmol/kg, individual animal, read-out: CL/F (converted)): 5.1 mL/h/kg
Tmax [3, 15]: 24 h
half-life [3, 16]: 32.9 h
CL/F ([3]; male, Sprague Dawley, rat, plasma, sc, 10 nmol/kg, dose response, single subcutaneous dose 10 nmol/kg, mean, read-out: CL/F (converted)): 5.28 mL/h/kg
Tmax [3, 16]: 24 h
half-life [3, 17]: 31.5 h
CL/F ([3]; male, Sprague Dawley, rat, plasma, sc, 30 nmol/kg, dose response, single subcutaneous dose 30 nmol/kg, individual animal, read-out: CL/F (converted)): 4.8 mL/h/kg
Tmax [3, 17]: 24 h
half-life [3, 18]: 34.9 h
CL/F ([3]; male, Sprague Dawley, rat, plasma, sc, 30 nmol/kg, dose response, single subcutaneous dose 30 nmol/kg, mean, read-out: CL/F (converted)): 4.51 mL/h/kg
Tmax [3, 18]: 32 h
half-life [3, 19]: 30.8 h
CL/F ([3]; male, Sprague Dawley, rat, plasma, sc, 100 nmol/kg, dose response, single subcutaneous dose 100 nmol/kg, individual animal, read-out: CL/F (converted)): 5.46 mL/h/kg
Tmax [3, 19]: 24 h
half-life [3, 20]: 27.1 h
CL/F ([3]; male, Sprague Dawley, rat, plasma, sc, 100 nmol/kg, dose response, single subcutaneous dose 100 nmol/kg, mean, read-out: CL/F (converted)): 5.08 mL/h/kg
Tmax [3, 20]: 24 h
half-life [3, 21]: 37.7 h
CL/F ([3]; male, Sprague Dawley, rat, plasma, sc, 187 nmol/kg, single subcutaneous dose 187 nmol/kg, individual animal, read-out: CL/F (converted)): 3.67 mL/h/kg
Tmax [3, 21]: 24 h
half-life [3, 22]: 35.7 h
CL/F ([3]; male, Sprague Dawley, rat, plasma, sc, 187 nmol/kg, single subcutaneous dose 187 nmol/kg, mean, read-out: CL/F (converted)): 4.07 mL/h/kg
Tmax [3, 22]: 24 h
AUC0-inf ([3]; rat, plasma, sc, dose response, single subcutaneous dose 10 nmol/kg, male Sprague Dawley rats, mean, read-out: AUC0-inf): 2.05 µM·h
Cmax ([3]; rat, plasma, sc, dose response, single subcutaneous dose 10 nmol/kg, male Sprague Dawley rats, mean, read-out: Cmax): 0.0342 µM
AUC0-inf ([3]; rat, plasma, sc, dose response, single subcutaneous dose 30 nmol/kg, male Sprague Dawley rats, mean, read-out: AUC0-inf): 7.01 µM·h
Cmax ([3]; rat, plasma, sc, dose response, single subcutaneous dose 30 nmol/kg, male Sprague Dawley rats, mean, read-out: Cmax): 0.105 µM
AUC0-inf ([3]; rat, plasma, sc, dose response, single subcutaneous dose 100 nmol/kg, male Sprague Dawley rats, mean, read-out: AUC0-inf): 20.2 µM·h
Cmax ([3]; rat, plasma, sc, dose response, single subcutaneous dose 100 nmol/kg, male Sprague Dawley rats, mean, read-out: Cmax): 0.334 µM
AUC0-inf ([3]; rat, plasma, sc, single subcutaneous dose 187 nmol/kg, male Sprague Dawley rats, mean, read-out: AUC0-inf): 49 µM·h
Cmax ([3]; rat, plasma, sc, single subcutaneous dose 187 nmol/kg, male Sprague Dawley rats, mean, read-out: Cmax): 0.657 µM
AUC0-inf ([3]; rat, plasma, male Sprague Dawley rats, single intravenous dose 187 nmol/kg, Mean, read-out: AUC0-inf): 93.4 µM·h
C0 ([3]; rat, plasma, male Sprague Dawley rats, single intravenous dose 187 nmol/kg, Mean, read-out: C0): 5.11 µM
CL/F [3, 23]: 4.77 mL/h/kg and 3.77 mL/h/kg
T1/2 [3, 23]: 38.2 h and 31.2 h
Substance: Ac-GSPSIVTS[αMeL]DVPT[Aib][αMeL]LQKILEQERAEKARQQAK([γGlu-AEEA-εLys-C20 diacid])EAAEILAQV-NH2 [SEQ ID NO: 1, Ac-GSPSIVTS αMeL DVPT Aib αMeL LQKILEQERAEKARQQAK(γE-(2-[2-(2-Amino-ethoxy)-ethoxy]-acetyl)-ϵK-CO-(CH2)18-CO2H)EAAEILAQV-NH2]
peptides displayed on MHC-II complexes ([2]; human dendritic cells from normal donors): at least one peptide cluster on MHC-II complexes in a subset of donors
immunogenicity compared with SEQ ID NO:54 ([2]; in the MAPPs assay and/or the T cell proliferation assay): substantial improvements in immunogenicity over a compound comprising SEQ ID NO:54
AUC0-inf [3, 10]: 2.07 µM·h and 1.86 µM·h and 2.21 µM·h
Cmax [3, 10]: 0.0377 µM and 0.0264 µM and 0.0385 µM
AUC0-inf [3, 11]: 6.42 µM·h and 6.92 µM·h and 7.69 µM·h
Cmax [3, 11]: 0.102 µM and 0.11 µM and 0.104 µM
AUC0-inf [3, 12]: 18.8 µM·h and 21.1 µM·h and 20.7 µM·h
Cmax [3, 12]: 0.348 µM and 0.332 µM and 0.321 µM
AUC0-inf [3, 13]: 111 µM·h and 91.9 µM·h and 77.3 µM·h
C0 [3, 13]: 5.97 µM and 6.95 µM and 2.4 µM
AUC0-inf [3, 23]: 53.9 µM·h and 41.2 µM·h and 51.8 µM·h
Cmax [3, 23]: 0.804 µM and 0.511 µM and 0.657 µM
